Data on 20 compounds can be found in PubChem BioAssay AID330 (DTP/NCI, 2004).

This assay concerns P388 leukemia ip, CD2F1 mice, survival T/C. The assay is described as follows: NCI In Vivo Anticancer Drug Screen. Data for tumor model P388 Leukemia (intraperitoneal) in CD2F1 (CDF1) mice. The following applies: endpoint: median survival time, higher = longer survival. A digest of the protocol: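 Mice carrying the transplanted tumor received test compound or vehicle. Survival was recorded in each group, and the value is the treated-group measurement divided by that of the vehicle-treated control group.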

The mark [1] stands for this setting: dose: 50.0 mg/kg/injection, schedule: Q01DX009 (ip), vehicle: Klucel (hydroxypropylcellulose) (HPC).
[2] abbreviates: dose: 200.0 mg/kg/injection, schedule: Q01DX009 (ip), vehicle: Klucel (hydroxypropylcellulose) (HPC).
Setting [3] is: dose: 100.0 mg/kg/injection, schedule: Q01DX005 (ip), vehicle: Klucel (hydroxypropylcellulose) (HPC).
The mark [4] stands for this setting: dose: 100.0 mg/kg/injection, schedule: Q01DX009 (ip), vehicle: Klucel (hydroxypropylcellulose) (HPC).

Values joined by “and” are separate entries in the source; they are usually repeats but may differ in a detail not shown here. Equal entries are not always repeated. Inconclusive results and toxic doses are left out.

With `C[n+]1c2ccccc2nc2c(N)cc(N)cc21`, the T/C reads like this: (dose: 31.3 mg/kg/injection, schedule: Q04DX003 (ip), vehicle: saline sonified) 104 % of control; (dose: 83.0 mg/kg/injection, schedule: Q04DX003 (ip), vehicle: saline with Tween-80) 113 % of control; (dose: 125.0 mg/kg/injection, schedule: Q04DX003 (ip), vehicle: saline with Tween-80) 122 % of control; (dose: 188.0 mg/kg/injection, schedule: Q04DX003 (ip), vehicle: saline with Tween-80) 100 % of control.
For the compound `Cc1cc(O)c2c(O)c(-c3ccc4cc(C)cc(O)c4c3O)ccc2c1`, the T/C reads like this: (dose: 50.0 mg/kg/injection, schedule: Q01DX009 (ip), vehicle: saline) 104 % of control; (dose: 100.0 mg/kg/injection, schedule: Q01DX009 (ip), vehicle: saline) 112 % of control.
As for `C1CCNCC1.COc1ccccc1C(=O)[CH-]C(=O)C(F)(F)F.COc1ccccc1C(=O)[CH-]C(=O)C(F)(F)F.COc1ccccc1C(=O)[CH-]C(=O)C(F)(F)F.COc1ccccc1C(=O)[CH-]C(=O)C(F)(F)F.[Eu+3]`, the T/C under setting [1] was 94 % of control and the T/C under setting [2] was 91 % of control.
As to `Cn1c(=O)c2c(ncn2Cc2ccc(O)c([N+](=O)[O-])c2)n(C)c1=O`, the T/C by setting is: (dose: 25.0 mg/kg/injection, schedule: Q01DX005 (ip), vehicle: Klucel (hydroxypropylcellulose) (HPC)) 91 % of control; under setting [3], 94 % of control; (dose: 200.0 mg/kg/injection, schedule: Q01DX005 (ip), vehicle: Klucel (hydroxypropylcellulose) (HPC)) 92 % of control.
Take `COc1cccc(-c2cc(C(=O)O)c3cc4ccccc4cc3n2)c1OC`: the T/C was 100 % of control under setting [1], 101 % of control under setting [4] and 100 % of control under setting [2].
With `O=C(Cc1nc2ccccc2[nH]1)N/N=C1\SCC(=O)N1C1CCCCC1`, the T/C (dose: 100.0 mg/kg/injection, schedule: Q01DX001 (ip), vehicle: Klucel (hydroxypropylcellulose) (HPC)) was 98 % of control; the T/C (dose: 200.0 mg/kg/injection, schedule: Q01DX001 (ip), vehicle: Klucel (hydroxypropylcellulose) (HPC)) is 100 % of control; the T/C (dose: 400.0 mg/kg/injection, schedule: Q01DX001 (ip), vehicle: Klucel (hydroxypropylcellulose) (HPC)) is 99 % of control.
Turning to `COc1cc2cnc3c4cc(OC)c(OC)cc4c(O)cc3c2cc1OC`, the T/C (dose: 3.12 mg/kg/injection, schedule: Q01DX005 (ip), vehicle: Klucel (hydroxypropylcellulose) (HPC)) is 98 % of control; the T/C (dose: 6.25 mg/kg/injection, schedule: Q01DX005 (ip), vehicle: Klucel (hydroxypropylcellulose) (HPC)) is 106 % of control; the T/C (dose: 12.5 mg/kg/injection, schedule: Q01DX005 (ip), vehicle: Klucel (hydroxypropylcellulose) (HPC)) is 98 % of control.
Regarding `O=c1c2ccccc2nc(-c2ccccc2)n1-c1nccs1`, the T/C (dose: 50.0 mg/kg/injection, schedule: Q01DX005 (ip), vehicle: saline with Tween-80) is 86 % of control; the T/C (dose: 100.0 mg/kg/injection, schedule: Q01DX005 (ip), vehicle: saline with Tween-80) was 89 % of control; the T/C (dose: 200.0 mg/kg/injection, schedule: Q01DX005 (ip), vehicle: saline with Tween-80) is 91 % of control.
Regarding `O=C(O)CNC1CCCCC1`, the T/C (dose: 60.0 mg/kg/injection, schedule: Q01DX005 (ip), vehicle: saline) was 95 % of control; the T/C (dose: 120.0 mg/kg/injection, schedule: Q01DX005 (ip), vehicle: saline) was 92 % of control; the T/C (dose: 240.0 mg/kg/injection, schedule: Q01DX005 (ip), vehicle: saline) is 87 % of control.
In the case of `NC(=S)c1cccc(C2Nc3ccccc3O2)c1` (centres undefined), the T/C reads like this: (dose: 50.0 mg/kg/injection, schedule: Q01DX009 (ip), vehicle: saline with Tween-80) 94 % of control; (dose: 100.0 mg/kg/injection, schedule: Q01DX009 (ip), vehicle: saline with Tween-80) 104 % of control; (dose: 200.0 mg/kg/injection, schedule: Q01DX009 (ip), vehicle: saline with Tween-80) 104 % of control.
For `CNC(=S)OCCn1c([N+](=O)[O-])cnc1C`, the T/C (dose: 100.0 mg/kg/injection, schedule: Q01DX001 (ip), vehicle: saline with Tween-80) was 92 % of control; the T/C (dose: 200.0 mg/kg/injection, schedule: Q01DX001 (ip), vehicle: saline with Tween-80) was 106 % of control; the T/C (dose: 400.0 mg/kg/injection, schedule: Q01DX001 (ip), vehicle: saline with Tween-80) was 105 % of control.
With `Cc1cc(Cl)ccc1O/C(=C/C(=O)O)C(=O)O`, the T/C was 100 % of control and 98 % of control (dose: 60.0 mg/kg/injection, schedule: Q01DX005 (ip), vehicle: Klucel (hydroxypropylcellulose) (HPC)); 100 % of control and 95 % of control (dose: 120.0 mg/kg/injection, schedule: Q01DX005 (ip), vehicle: Klucel (hydroxypropylcellulose) (HPC)); 101 % of control and 87 % of control (dose: 240.0 mg/kg/injection, schedule: Q01DX005 (ip), vehicle: Klucel (hydroxypropylcellulose) (HPC)).
For `Cc1c[nH]c2nc(C)n(-c3ccccc3F)c(=N)c12`, the T/C (dose: 50.0 mg/kg/injection, schedule: Q01DX005 (ip), vehicle: Klucel (hydroxypropylcellulose) (HPC)) is 99 % of control and the T/C under setting [3] is 91 % of control.
In the case of `COc1cccc2c1C(=O)c1c(O)c3c(c(O)c1C2=O)C[C@@](O)(c1csc(N)n1)C[C@@H]3OC1CC(N)C(O)C(C)O1` (some centres undefined), the T/C was 150 % of control (dose: 1.56 mg/kg/injection, schedule: Q01DX009 (ip), vehicle: water); 157 % of control and 160 % of control (dose: 6.25 mg/kg/injection, schedule: Q01DX009 (ip), vehicle: water); 96 % of control (dose: 6.25 mg/kg/injection, schedule: Q04DX003 (ip), vehicle: water); 155 % of control and 163 % of control (dose: 12.5 mg/kg/injection, schedule: Q01DX009 (ip), vehicle: water); 105 % of control and 109 % of control (dose: 12.5 mg/kg/injection, schedule: Q04DX003 (ip), vehicle: water); 178 % of control (dose: 25.0 mg/kg/injection, schedule: Q01DX009 (ip), vehicle: water). Further, the T/C is 118 % of control (dose: 25.0 mg/kg/injection, schedule: Q04DX003 (ip), vehicle: water) and 123 % of control (dose: 100.0 mg/kg/injection, schedule: Q04DX003 (ip), vehicle: water).
On to `CCN(CC)CCNc1c(C)ccc2cccnc12`, for which the T/C is, setting by setting: (dose: 12.5 mg/kg/injection, schedule: Q01DX005 (ip), vehicle: saline) 102 % of control; (dose: 25.0 mg/kg/injection, schedule: Q01DX005 (ip), vehicle: saline) 93 % of control; (dose: 50.0 mg/kg/injection, schedule: Q01DX005 (ip), vehicle: saline) 100 % of control.
For `O=[N+]([O-])c1cc2c([N+](=O)[O-])cccc2o1`, the T/C (dose: 100.0 mg/kg/injection, schedule: Q04DX003 (ip), vehicle: Klucel (hydroxypropylcellulose) (HPC)) is 102 % of control and the T/C (dose: 200.0 mg/kg/injection, schedule: Q04DX003 (ip), vehicle: Klucel (hydroxypropylcellulose) (HPC)) was 103 % of control.
Consider `CC(C)N=Cc1ccccc1O.CC(C)N=Cc1ccccc1O.[Cu]`, for which the T/C reads like this: (dose: 25.0 mg/kg/injection, schedule: Q04DX003 (ip), vehicle: saline with Tween-80) 100 % of control; (dose: 50.0 mg/kg/injection, schedule: Q04DX003 (ip), vehicle: saline with Tween-80) 100 % of control.
Take `COCCOC(=O)CCn1nc(-c2ccccc2)c(-c2ccccc2)c(C#N)c1=O`: the T/C runs as follows: (dose: 100.0 mg/kg/injection, schedule: Q04DX002 (ip), vehicle: saline with Tween-80) 104 % of control; (dose: 200.0 mg/kg/injection, schedule: Q04DX002 (ip), vehicle: saline with Tween-80) 106 % of control; (dose: 400.0 mg/kg/injection, schedule: Q04DX002 (ip), vehicle: saline with Tween-80) 100 % of control.
Consider `CCC1(c2ccccc2)C(=O)N(CCCl)C(=O)N(CCCl)C1=O`, for which the T/C under setting [1] is 92 % of control, the T/C under setting [4] is 92 % of control and the T/C under setting [2] was 92 % of control.
Regarding `CSc1ccc(NC(=O)n2nnc3ccccc32)cc1`, the T/C runs as follows: (dose: 6.25 mg/kg/injection, schedule: Q01DX009 (ip), vehicle: Klucel (hydroxypropylcellulose) (HPC)) 103 % of control and 106 % of control; (dose: 12.5 mg/kg/injection, schedule: Q01DX009 (ip), vehicle: Klucel (hydroxypropylcellulose) (HPC)) 102 % of control and 110 % of control; (dose: 25.0 mg/kg/injection, schedule: Q01DX009 (ip), vehicle: Klucel (hydroxypropylcellulose) (HPC)) 100 % of control and 111 % of control; under setting [1], 105 % of control and 109 % of control and 120 % of control; under setting [4], 105 % of control and 117 % of control and 124 % of control; under setting [2], 106 % of control and 97 % of control.
